Consider five compounds from patent EP0182271A2, “Nb-quaternary dibromo derivatives of ajmaline, isoajmaline, sandwicine and isosandwicine, pharmaceutical compositions containing them, intermediates and process for their preparation” (priority 1984, dated 1986).

The nature of series [1]: Acute 7-day toxicity in mice after a single p.o. dose. Also on record: species or system Maus. The conditions noted are these: in vivo, po, mouse (male NMRI), 50 % mortality on day 7, probit analysis, read-out: Toxizität LD50. The text has this:
(§1) Beschreibung der pharmakologischen Versuchsmethoden: • 1. Bestimmung der akuten 7-Tage-Toxizität in Mausen. Die akute Toxizität der Wirkstoffe wird in männlichen NMRI-Mäusen (Körpergewicht 18-22 g) nach einmaliger p.o.-Applikation bestimmt. Die LD50 wird als die Dosis in uMol/kg definiert, welcher eine 50 % Mortalität der Tiere am 7. Tag nach der Applikation entspricht. Die LD50-Werte werden durch eine Probit-Analyse errechnet. • 2. Bestimmung der Hemmwirkung der Substanzen auf durch Aconitin-Infusion induzierte Herzrhythmusstörungen in Ratten.

Series [2] relates to durch Aconitin-Infusion induzierte Herzrhythmusstörungen. Description: Inhibition of aconitine-infusion-induced cardiac arrhythmias in rats (method of Raschak). Type of series: in vivo, Ratte. The conditions noted are these: Rattus norvegicus, po, 3 h.
From the text: as §1
Die Hemmwirkung auf durch Aconitin-Infusion in Ratten verursachte Herzrhythmusstörungcn (Extrasystolen (ES), ventrikuläre Tachykardie (VT) und Kammerflattern (KF)) werden nach der Methode von Raschak (Arzneimittelforsch. 25 (1975), 639-641) bestimmt.
Männliche Ratten mit einem Körpergewicht von 320-400 g werden durch i.p. Applikation von 1,25 g/kg Urethan narkotisiert. Die Tiere werden auf den Rücken gelegt und ihr Elektrokardiogramm wird während des Versuches alle 30 Sekunden gemessen. Den Tieren wird eine i.v. Aconitin-Infusion mit einer Infusionsgeschwindigkeit von 5 µg/kg/min Aconitin und einem Infusionsvolumen von 0,1 ml/min verabreicht. Drei Stunden vor Beginn der Aconitin-Infusion werden den Tieren die Testsubstanzen p.o. in einer Menge von 2 ml/kg Körpergewicht 2%-iger Tylose-Lösung verabreicht. Einer Kontrollgruppe wird nur die Tylose-Lösung verabreicht. Die Infusionsdauer bis zum Auftreten der verschiedenen Herzrhythmusstörungen wird bestimmt.
Antiarrhythmisch wirksame Testverbindungen führen zu einer Verzögerung des Auftretens der Aconitin-induzierten Herzrhythmusstörungen in den behandelten Tieren im Vergleich zu den Kontrolltieren. Aus dem Ausmaß der Verlängerung der Aconitininfusionsdauer und somit der Erhöhung der verabreichten Aconitinmenge, bis zu welcher die Tiere gegen die durch Aconitin induzierten Herzrhythmusstörungen geschützt sind, läßt sich auf die Stärke der antiarrhythmischen Wirksamkeit der Testsubstanzen schließen. Als ED150 wird die Dosis der Testsubstanzen bestimmt, bei welcher die jeweiligen Herzrhythmusstörungen erst nach der Verlängerung der Aconitinfusionsdauer auf 150 % auftreten.

In series [3] the test system is ADP-induzierter Plättchenaggregation in PRP-K. Nature of the series: Inhibition of ADP-induced platelet aggregation in platelet-rich rabbit plasma (PRP/K), method of Born. In kind it is cell-based, Kaninchen. The conditions noted are these: Oryctolagus cuniculus, 10-6 Mol/l ADP, read-out: % Hemmwirkung gegenüber ADP-induzierter Plättchenaggregation in PRP-K. The text has this: 3. Bestimmung der Hemmwirkung auf durch ADP induzierte Blutplättchenaggregation im blutplättchenreichen Kaninchenblutplasma (PRP/K).
Die in-vitro-Bestimmung der antiaggregatorischen Wirkungen der Substanzen wurde nach der Methode von Born (Nature 194, 927 (1962)), modifiziert für Mikrobestimmungen nach Sim et al (Thromb. Res. 1, 655 (1975)) durchgeführt.
PRP/K wird durch Zentrifugieren von mit Antikoagulanz versetztem Kaninchenblut auf bekannte Weise erhalten. Als Kontrollwerte für die photometrische Bestimmung der Aggregationshemmung werden die optische Dichte des unbehandelten PRP/K (^ß0 % Aggregation) und von PRP/K, in welchem Blutplättchenaggregation durch Behandlung von 10-^6 Mol/1 ? ADP erzeugt wurde (100 % Aggregation), gemessen.
Zur Bestimmung der aggregationshemmmenden Wirkungen der Wirkstoffe werden Proben PRP/K mit einer bestimmten Wirkstoffdosis versetzt und dann mit 10-^6 Mol/1 ADP behandelt. Die Verringerung der optischen Dichte gegenüber der des unbehandelten PRP/K wird gemessen und mit der bei der Behandlung von wirkstoffreiem PRP/K mit 10-^6 Mol/l ADP aufgetretenen optischen Dichteverringerung verglichen. Hieraus wird die durch die eingesetzte Wirkstoffdosis entfaltete Hemmwirkung in % Hemmung der in wirkstoffreiem PRP/K verursachten Aggregation berechnet. Die in diesem Test mit Wirkstoffen der Formel I erhaltenen Ergebnisse werden in der nachstehenden Tabelle II wiedergegeben. Die folgenden Tabellen I und II geben nach den vorstehend beschriebenen Testmethoden erhaltene Ergebnisse wieder. Die für die Verbindungen der Formel I angegebenen Beispielsnummern beziehen sich auf die nachstehenden Herstellungsbeispiele.

Setting [4] is: read-out: Hemmwirkung gegenüber aconotininduzierten Herzrhythmusstörungen ED150 ES.
Setting [5] is: read-out: Hemmwirkung gegenüber aconotininduzierten Herzrhythmusstörungen ED150 KF.
The mark [6] stands for this setting: read-out: Hemmwirkung gegenüber aconotininduzierten Herzrhythmusstörungen ED150 VT.

Where two headings read alike, the source gives them in different places.

The term LD50 denotes the dose at which mortality reaches 50%. With `CCC1C2CC3C4N(C)c5c(Br)cc(Br)cc5C45CC(C2C5O)[N+]3(CCC(C)C)C1O` (stereo not shown) [Beispiel 2, Nb-(3-Methylbutyl)-10,12-dibromajmalinium-chlorid], the LD50 at 168 h in series [1] is 277 µmol/kg. The ED150 in series [2] (setting [4]) was 9 µmol/kg; in series [2] (setting [5]), 11 µmol/kg; in series [2] (setting [6]), 6 µmol/kg.
In the case of `CCC1C2CC3C4N(C)c5c(Br)cc(Br)cc5C45CC(C2C5O)[N+]3(CCCN2CCOCC2)C1O` (stereo not shown) [Beispiel 8, Nb-(3-Morpholinopropyl)-10,12-dibromisoajmalinium-chlorid], the inhibition at 100 µg/mL in series [3] was 100%.
On to `CCC1C2CC3C4N(C)c5c(Br)cc(Br)cc5C45CC(C2C5O)[N+]3(C)C1O` (stereo not shown) [Beispiel 12, Nb-Methyl-10,12-dibromisosandwicinium-hydrogenfumarat], for which the LD50 at 168 h in series [1] was determined as 2400 µmol/kg. Further, the values for the ED150 in series [2] (setting [4]), in series [2] (setting [5]) and in series [2] (setting [6]) were 49 µmol/kg, 58 µmol/kg and 64 µmol/kg, respectively. Moreover, the inhibition at 100 µg/mL in series [3] is 83%.
On to `CCC1C2CC3C4N(C)c5c(Br)cc(Br)cc5C45CC(C2C5O)[N+]3(C)C1O` (stereo not shown) [Beispiel 16], for which, in series [3] (dose 50 µg/ml), the inhibition at 50 µg/mL was determined as 81%.
Take `CCC1C2CC3C4N(C)c5c(Br)cc(Br)cc5C45CC(C2C5O)[N+]3(CCN2CCOCC2)C1O` (stereo not shown) [Beispiel 62]: the LD50 at 168 h in series [1] was 379 µmol/kg. In addition, the figures for the ED150 in series [2] (setting [4]), in series [2] (setting [5]) and in series [2] (setting [6]) were 11 µmol/kg, 13 µmol/kg and 11 µmol/kg, respectively. The inhibition at 100 µg/mL in series [3] was determined as 100%.
